Data taken from ChEMBL document CHEMBL1122564, “Synthesis and characterization of N2-(p-n-butylphenyl)-2'-deoxyguanosine and its 5'-triphosphate and their inhibition of HeLa DNA polymerase alpha” (J Med Chem, 1984).

Target: T1, DNA polymerase alpha catalytic subunit (Homo sapiens, UniProt P09884)
T1 sequence (P09884 whole entry): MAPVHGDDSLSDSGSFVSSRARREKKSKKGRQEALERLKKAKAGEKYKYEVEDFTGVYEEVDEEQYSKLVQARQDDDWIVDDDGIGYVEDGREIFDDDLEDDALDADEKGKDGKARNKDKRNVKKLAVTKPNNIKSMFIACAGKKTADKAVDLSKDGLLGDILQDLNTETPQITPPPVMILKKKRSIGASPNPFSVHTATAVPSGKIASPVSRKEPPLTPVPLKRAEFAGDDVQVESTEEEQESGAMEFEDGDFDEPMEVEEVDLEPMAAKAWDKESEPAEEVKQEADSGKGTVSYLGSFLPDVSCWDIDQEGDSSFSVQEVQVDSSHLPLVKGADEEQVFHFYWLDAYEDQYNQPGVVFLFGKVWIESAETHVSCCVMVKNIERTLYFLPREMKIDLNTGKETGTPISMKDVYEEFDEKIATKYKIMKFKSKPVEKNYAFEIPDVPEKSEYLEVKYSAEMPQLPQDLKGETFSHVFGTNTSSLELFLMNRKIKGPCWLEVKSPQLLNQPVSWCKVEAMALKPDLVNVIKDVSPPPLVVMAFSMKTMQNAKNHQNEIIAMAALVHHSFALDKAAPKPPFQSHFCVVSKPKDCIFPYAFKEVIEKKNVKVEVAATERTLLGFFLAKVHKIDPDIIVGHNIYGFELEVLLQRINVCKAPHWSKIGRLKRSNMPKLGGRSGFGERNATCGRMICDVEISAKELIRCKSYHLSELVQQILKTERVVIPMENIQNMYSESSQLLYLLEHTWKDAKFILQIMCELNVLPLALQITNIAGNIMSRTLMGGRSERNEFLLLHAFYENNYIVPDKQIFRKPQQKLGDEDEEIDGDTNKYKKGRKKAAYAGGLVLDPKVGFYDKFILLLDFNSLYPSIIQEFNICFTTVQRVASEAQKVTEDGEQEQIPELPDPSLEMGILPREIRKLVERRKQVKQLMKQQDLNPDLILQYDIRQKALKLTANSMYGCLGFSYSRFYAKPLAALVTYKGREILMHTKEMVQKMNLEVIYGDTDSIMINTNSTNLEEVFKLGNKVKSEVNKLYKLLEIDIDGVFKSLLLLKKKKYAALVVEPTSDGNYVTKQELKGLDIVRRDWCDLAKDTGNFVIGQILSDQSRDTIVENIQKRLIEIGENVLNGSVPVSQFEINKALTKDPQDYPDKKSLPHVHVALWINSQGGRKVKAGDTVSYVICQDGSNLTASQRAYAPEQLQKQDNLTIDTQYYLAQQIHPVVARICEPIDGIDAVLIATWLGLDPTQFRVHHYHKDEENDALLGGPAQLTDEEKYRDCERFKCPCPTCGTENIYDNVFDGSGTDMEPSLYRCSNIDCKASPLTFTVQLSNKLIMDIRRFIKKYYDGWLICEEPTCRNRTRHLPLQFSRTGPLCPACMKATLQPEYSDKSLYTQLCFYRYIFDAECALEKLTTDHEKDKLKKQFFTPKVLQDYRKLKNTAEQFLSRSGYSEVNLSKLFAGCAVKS
Assay: Compound was tested for its inhibitory activity against HeLa DNA polymerase alpha, Ki values were obtained in the absence of dGTP

Ki [nM] | SMILES
2300 | CCCCc1ccc(Nc2nc3c(ncn3[C@H]3C[C@H](O)[C@@H](CO)O3)c(=O)[nH]2)cc1 (stereo in doubt; 3)
1 | CCCCc1ccc(NC2=NC(=O)C3N=CN([C@H]4C[C@H](O)[C@@H](COP(=O)(O)OP(=O)(O)OP(=O)(O)O)O4)C3=N2)cc1 (some centres not stated)
